Test results reported in US7300940B2, “Integrin α-v β-3 antagonists for use in imaging and therapy” (The United States of America, as represented by the …, priority 2004, dated 2007).
Counter-ions that a name gives are not always drawn.

Target: T1, Integrin protein αvβ3 (Homo sapiens, UniProt P05106+P06756)
T1 construct: purchased Chemicon International, Inc., Temecula, Calif., USA
Experiment: Receptor/ligand challenge assay of biotinylated vitronectin binding to plate-coated integrin αvβ3 (chemiluminescence)
Conditions: for IC50: competition with biotinylated vitronectin for coated αvβ3, 3 hours at room temperature, quadruplicate, 0.00316-1000 nM; for IC50 Ratio Relative to Hood et al.: ratio of IC50 versus the Hood et al. antagonist in the same assay
Description: Receptor/Ligand Challenge Assay of Vitronectin to Integrin αvβ3 Receptor Antagonists in the Presence of Test Compounds
The title compounds of Examples 1 through 8 were tested for their activity as αvβ3 receptor antagonists by the procedure described below, and the buffers, solutions, and reagents used in the procedure are listed following the procedure.
Procedure. Integrin protein αvβ3 (purchased from Chemicon International, Inc., Temecula, Calif., USA) was diluted to a final concentration of 1 μg/mL in coating buffer (2.1). The αvβ3 coating solution was applied to 96-well polystyrene microtiter plate at 100 μL/well. (A total of 10 mL is needed to coat one 96-well plate). The plates were then sealed and allowed to incubate at 4° C. for at least 8 hours. The coating solution was then removed and the plate was washed two times with 300 μL/well of washing solution (2.2). Blocking buffer (2.3) was then added in amounts of 150 μL/well and the plate was incubated at room temperature for 2 hours. The blocking buffer was then removed, and the integrin antagonistic substances (117 μL of 1.25 μM (in H2O)) were added in quadruplicate to column 1 of the twelve well columns of the plate. For example, 117 μL of 1.25 μM 4-[2-(3,4,5,6-tetrahydropyrimidin-2 ylamino)ethyloxy]benzoyl-2-(S)-aminoethylsulfonylamino-β-alanine, the antagonist described by Hood et al. referenced above was added to column 1, rows A-D and 117 μL of 1.25 μM of the antagonist of Example 1 was added to column 1, […]. Binding buffer (2.4) (80 μL) was added to the remaining wells of the plate (column 2-12, rows A-F). A multichannel pipet was used to transfer 37 μL aliquots of the solutions from column 1 to column 2. The solutions were then mixed in the column 2 wells by drawing them up and down in the pipet 15 times. Solutions (37 μL) were then transferred from column 2 to column 3 and mixed by being drawn up and down in the pipet 15 times. The process was repeated across the columns to column 12, and the last 37 μL of solution was discarded. Biotinylated Vitronectin solution (2.5) was then added (20 μL/well, 0.1 μg/well). The final volume was 100 μL total per well, and the concentrations (nM) of analytes in columns 1-12 respectively were as follows: 1000, 316, 100, 31.6, 10.0, 3.16, 1.00, 0.316, 0.100, 0.0316, 0.01, and 0.00316.
The plate was agitated for thorough mixing of the solutions, then covered and incubated at room temperature for 3 hours. The solutions were then discarded and the plate was washed 3 times with 170 μL/well of washing solution (2.2). NeutrAvidin-HRP solution (2.6) was then added (100 μL/well, 0.01 μg/well), cover, and the plate was incubated at room temperature for 30 minutes. The solutions in the wells were then discarded and the plate was washed 3 times with 170 μL/well of washing solution (2.2). Chemiluminescent Substrate solution (2.7) was then added to the plate (100 μL/well), and the luminescence was read using the Wallac Victor 1420 Multilabel Counter (PerkinElmer, Inc., Boston, Mass., USA). A plot of average luminescence vs. concentration was generated using KaleidaGraph (version 3.5) software and the IC50 values were calculated using the following formula: Max−Max*M0^m1/(m2^m1+M0^m1);m1=1;m2=1, where Max is the maximum luminescence observed.
The results are expressed in the table below, both in terms of the 50% inhibitory concentration (IC50) of each test compound and the ratio of 50% inhibitory concentration (IC50) of the test compound to that of the Hood et al. antagonist 4-[2-(3,4,5,6-tetrahydropyrimidin-2-ylamino)ethyloxy]benzoyl-2-(S)-aminoethylsulfonylamino-β-alanine.

T1 sequence (P06756 31-889 limits assumed): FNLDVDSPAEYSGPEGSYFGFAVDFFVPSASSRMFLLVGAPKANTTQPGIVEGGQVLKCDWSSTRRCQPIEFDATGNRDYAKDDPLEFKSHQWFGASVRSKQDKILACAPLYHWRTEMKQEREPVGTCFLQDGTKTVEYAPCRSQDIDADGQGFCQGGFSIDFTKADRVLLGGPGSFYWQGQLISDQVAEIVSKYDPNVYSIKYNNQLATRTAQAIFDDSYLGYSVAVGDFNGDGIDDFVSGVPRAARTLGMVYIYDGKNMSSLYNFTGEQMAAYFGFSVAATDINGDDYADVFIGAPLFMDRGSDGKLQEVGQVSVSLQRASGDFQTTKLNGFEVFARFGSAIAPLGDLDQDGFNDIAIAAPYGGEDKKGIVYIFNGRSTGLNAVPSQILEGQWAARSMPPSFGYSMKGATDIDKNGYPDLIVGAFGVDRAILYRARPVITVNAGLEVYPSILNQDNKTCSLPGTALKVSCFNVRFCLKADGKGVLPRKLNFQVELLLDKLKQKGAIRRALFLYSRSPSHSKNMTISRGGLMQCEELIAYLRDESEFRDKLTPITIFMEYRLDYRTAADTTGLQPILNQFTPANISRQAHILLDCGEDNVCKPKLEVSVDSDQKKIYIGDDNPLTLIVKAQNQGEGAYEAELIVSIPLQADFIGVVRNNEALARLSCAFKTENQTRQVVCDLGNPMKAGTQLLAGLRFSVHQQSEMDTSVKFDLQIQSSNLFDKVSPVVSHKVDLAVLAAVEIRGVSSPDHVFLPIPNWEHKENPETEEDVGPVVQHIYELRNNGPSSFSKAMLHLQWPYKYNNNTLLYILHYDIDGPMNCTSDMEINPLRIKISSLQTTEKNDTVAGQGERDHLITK
T1 sequence (P06756 891-1048 limits assumed): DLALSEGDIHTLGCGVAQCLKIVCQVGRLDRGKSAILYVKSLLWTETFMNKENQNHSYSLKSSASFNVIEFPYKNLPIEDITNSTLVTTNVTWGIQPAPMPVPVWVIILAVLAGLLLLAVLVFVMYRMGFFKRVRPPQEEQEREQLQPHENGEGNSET
T1 sequence (P05106 27-788): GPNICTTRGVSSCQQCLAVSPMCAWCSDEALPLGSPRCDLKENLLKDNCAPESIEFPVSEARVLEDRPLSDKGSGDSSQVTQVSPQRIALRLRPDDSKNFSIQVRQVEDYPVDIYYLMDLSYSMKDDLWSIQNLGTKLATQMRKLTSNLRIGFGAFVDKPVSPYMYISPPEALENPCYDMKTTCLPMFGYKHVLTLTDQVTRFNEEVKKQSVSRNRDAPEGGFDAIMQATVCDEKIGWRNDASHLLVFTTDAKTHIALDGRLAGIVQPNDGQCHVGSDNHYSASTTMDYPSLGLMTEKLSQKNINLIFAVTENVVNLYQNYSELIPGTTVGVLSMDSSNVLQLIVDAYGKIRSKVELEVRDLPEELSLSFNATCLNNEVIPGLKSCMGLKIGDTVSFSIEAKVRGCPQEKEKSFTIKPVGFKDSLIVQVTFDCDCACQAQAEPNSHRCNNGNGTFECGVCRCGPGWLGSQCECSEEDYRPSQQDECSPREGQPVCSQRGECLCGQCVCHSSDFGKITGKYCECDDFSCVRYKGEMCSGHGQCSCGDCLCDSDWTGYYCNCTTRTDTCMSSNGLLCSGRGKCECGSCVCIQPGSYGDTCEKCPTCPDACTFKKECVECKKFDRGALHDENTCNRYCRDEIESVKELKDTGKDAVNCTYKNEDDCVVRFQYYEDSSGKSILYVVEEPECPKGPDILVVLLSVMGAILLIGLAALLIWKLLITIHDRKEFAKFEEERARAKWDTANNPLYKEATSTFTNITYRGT

Compound: CCCCOC(=O)NCC(C)(C)COC(=O)NCCS(=O)(=O)N[C@@H](CNC(=O)c1ccc(OCCNC2=NCCCN2)cc1)C(=O)O [Example 1, 4-[2-(3,4,5,6-Tetrahydropyrimidin-2-ylamino)ethyloxy]benzoyl-2-(S)-[N-(3-butyloxycarbonylamino-neopenta-1-carbamyl)]-aminoethylsulfonylamino-β-alanine]
- IC50: 0.72 ± 0.08 nM
- IC50 Ratio Relative to Hood et al.: 17.3 ± 4.7

Compound: CC(C)(CN)COC(=O)NCCS(=O)(=O)N[C@@H](CNC(=O)c1ccc(OCCNC2=NCCCN2)cc1)C(=O)O [Example 2, 4-[2-(3,4,5,6-Tetrahydropyrimidin-2-ylamino)ethyloxy]benzoyl-2-(S)-[N-(3-amino-neopenta-1-carbamyl)]-aminoethylsulfonylamino-β-alanine Hydrochloride]
- IC50: 2.94 ± 0.19 nM
- IC50 Ratio Relative to Hood et al.: 7.0 ± 0.7

Compound: CCCCOC(=O)NCCOC(=O)NCCS(=O)(=O)N[C@@H](CNC(=O)c1ccc(OCCNC2=NCCCN2)cc1)C(=O)O [Example 3, 4-[2-(3,4,5,6-Tetrahydropyrimidin-2-ylamino)ethyloxy]benzoyl-2-(S)-[N-(3-butyloxycarbonylamino-ethyl-1-carbamyl)]-aminoethylsulfonylamino-β-alanine]
- IC50: 1.7 ± 0.2 nM
- IC50 Ratio Relative to Hood et al.: 8.8 ± 3.5

Compound: NCCOC(=O)NCCS(=O)(=O)N[C@@H](CNC(=O)c1ccc(OCCNC2=NCCCN2)cc1)C(=O)O [Example 4, 4-[2-(3,4,5,6-Tetrahydropyrimidin-2-ylamino)ethyloxy]benzoyl-2-(S)-[N-(3-amino-ethyl-1-carbamyl)]-aminoethylsulfonylamino-β-alanine]
- IC50: 3.64 ± 0.3 nM
- IC50 Ratio Relative to Hood et al.: 4.3 ± 0.6

Compound: CCCCOC(=O)NCCCOC(=O)NCCS(=O)(=O)N[C@@H](CNC(=O)c1ccc(OCCNC2=NCCCN2)cc1)C(=O)O [Example 5, 4-[2-(3,4,5,6-Tetrahydropyrimidin-2-ylamino)ethyloxy]benzoyl-2-(S)-[N-(3-butyloxycarbonylamino-propyl-1-carbamyl)]-aminoethylsulfonylamino-β-alanine]
- IC50: 1.02 ± 0.12 nM
- IC50 Ratio Relative to Hood et al.: 11.2 ± 2.4

Compound: NCCCOC(=O)NCCS(=O)(=O)N[C@@H](CNC(=O)c1ccc(OCCNC2=NCCCN2)cc1)C(=O)O [Example 6]
- IC50: 6.68 ± 0.54 nM
- IC50 Ratio Relative to Hood et al.: 3.6 ± 0.7

Compound: CCCCOC(=O)NCCCCOC(=O)NCCS(=O)(=O)N[C@@H](CNC(=O)c1ccc(OCCNC2=NCCCN2)cc1)C(=O)O [Example 7, 4-[2-(3,4,5,6-Tetrahydropyrimidin-2-ylamino)ethyloxy]benzoyl-2-(S)-[N-(3-butyloxycarbonylamino-butyl-1-carbamyl)]-aminoethylsulfonylamino-β-alanine]
- IC50: 1.34 ± 0.14 nM
- IC50 Ratio Relative to Hood et al.: 10.8 ± 2.7

Compound: NCCCCOC(=O)NCCS(=O)(=O)N[C@@H](CNC(=O)c1ccc(OCCNC2=NCCCN2)cc1)C(=O)O [Example 8, 4-[2-(3,4,5,6-Tetrahydropyrimidin-2-ylamino)ethyloxy]benzoyl-2-(S)-[N-(3-amino-butyl-1-carbamyl)]-aminoethylsulfonylamino-β-alanine]
- IC50: 3.13 ± 0.33 nM
- IC50 Ratio Relative to Hood et al.: 1.3 ± 0.5

Compound: NCCS(=O)(=O)N[C@@H](CNC(=O)c1ccc(OCCNC2=NCCCN2)cc1)C(=O)O [Hood et al., 4-[2-(3,4,5,6-tetrahydropyrimidin-2-ylamino)ethyloxy]benzoyl-2-(S)-aminoethylsulfonylamino-β-alanine, reference compound]
- IC50: 14.1 ± 1.4 nM
